pEC50, pKi: −log10 of the molar value. Starred links: 1 amine or outer side, 2 acyl side, 3 side chain; linkers in the order of their positions; H or OH if unused. Non-standard residues stand in square brackets, D forms with d. Residues, ends and D or L forms follow the SMILES beside them. X1 = O=C([C@@H]1C[C@@H](c2ccccc2)[C@@H]1CN[*:1])[*:2]; X2 = O=C([C@H]1C[C@H](c2ccccc2)[C@H]1CN[*:1])[*:2]
Columns and labels:
[1] = molecular target: T1, Neuropeptide Y receptor type 4 (Homo sapiens, UniProt P50391); test: Displacement of [3H]UR-KK200 from human Y4 receptor expressed in CHO-Gqi5-mtAQE cells measured after 90 mins by MicroBeta plate counter based competition binding assay; type: cell-based; conditions: for pKi: read-out: Ki; for Ki: read-out: pKi (converted)
[2] = molecular target: T2, Neuropeptide Y receptor type 2 (Homo sapiens, UniProt P49146); test: Displacement of [3H]propionyl-pNPY from human Y2 receptor expressed in CHO cells measured after 90 mins by MicroBeta plate counter based competition binding assay; type: cell-based; conditions: for pKi: read-out: Ki; for Ki: read-out: pKi (converted)
T2 sequence (P49146 whole entry): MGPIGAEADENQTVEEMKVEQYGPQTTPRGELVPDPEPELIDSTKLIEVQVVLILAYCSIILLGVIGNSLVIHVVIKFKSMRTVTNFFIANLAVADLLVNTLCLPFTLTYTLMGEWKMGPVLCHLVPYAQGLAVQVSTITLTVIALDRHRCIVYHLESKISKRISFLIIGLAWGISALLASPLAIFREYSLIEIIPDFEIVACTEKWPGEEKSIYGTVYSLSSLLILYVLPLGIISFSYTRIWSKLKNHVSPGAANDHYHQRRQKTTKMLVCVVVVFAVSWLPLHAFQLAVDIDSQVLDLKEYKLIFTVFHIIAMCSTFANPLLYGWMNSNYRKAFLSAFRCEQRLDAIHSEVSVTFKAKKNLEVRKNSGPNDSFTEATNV

[3] = molecular target: T3, Neuropeptide Y receptor type 5 (Homo sapiens, UniProt Q15761); test: Displacement of [3H]propionyl-pNPY from human Y5 receptor expressed in HEC-1B cells measured after 90 mins by MicroBeta plate counter based competition binding assay; type: cell-based, HEC-1B cell line; conditions: for pKi: read-out: Ki; for Ki: read-out: pKi (converted)
T3 sequence (Q15761 whole entry): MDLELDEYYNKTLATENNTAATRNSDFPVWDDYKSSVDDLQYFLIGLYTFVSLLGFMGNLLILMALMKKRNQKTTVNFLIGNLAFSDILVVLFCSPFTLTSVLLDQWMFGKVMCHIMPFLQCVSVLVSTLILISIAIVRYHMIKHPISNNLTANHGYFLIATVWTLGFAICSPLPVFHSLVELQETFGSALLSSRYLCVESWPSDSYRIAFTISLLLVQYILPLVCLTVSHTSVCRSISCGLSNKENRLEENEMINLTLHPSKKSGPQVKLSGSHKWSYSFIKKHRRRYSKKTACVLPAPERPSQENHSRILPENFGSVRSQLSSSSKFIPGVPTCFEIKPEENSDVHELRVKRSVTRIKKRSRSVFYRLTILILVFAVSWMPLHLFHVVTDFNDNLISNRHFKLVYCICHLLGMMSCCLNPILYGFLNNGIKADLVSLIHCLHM

[4] = molecular target: T1, Neuropeptide Y receptor type 4; test: Agonist potency at human Y4 receptor expressed in HEK293T-NlucN-mGSi/Y4R-NlucC cells assessed as intrinsic activity by miniGsi protein recruitment assay relative to hPP; type: cell-based; conditions: filed as agonist
[5] = Stability in human plasma assessed as rate constant by measuring loss of intact peptide at 100 uM measured upto 24 hrs at 37 degC; type: ADME, cell-free
[6] = Stability in human plasma assessed as time constant by measuring loss of intact peptide at 100 uM measured upto 24 hrs at 37 degC; type: ADME, cell-free
[7] = molecular target: T1, Neuropeptide Y receptor type 4; test: Agonist potency at human Y4 receptor expressed in HEK293T-NlucN-mGSi/Y4R-NlucC cells by miniGsi protein recruitment assay; type: cell-based; conditions: for pEC50: read-out: EC50; for EC50: read-out: pEC50 (converted)
[8] = Stability in human plasma assessed as intact remained level in presence of ramipril ACE inhibitor measured over 4 hrs at 37 degC; type: ADME, cell-free
[9] = Stability in human plasma assessed as half life time by measuring loss of intact peptide at 100 uM measured upto 24 hrs at 37 degC; type: ADME, cell-free

T1 sequence (P50391 whole entry): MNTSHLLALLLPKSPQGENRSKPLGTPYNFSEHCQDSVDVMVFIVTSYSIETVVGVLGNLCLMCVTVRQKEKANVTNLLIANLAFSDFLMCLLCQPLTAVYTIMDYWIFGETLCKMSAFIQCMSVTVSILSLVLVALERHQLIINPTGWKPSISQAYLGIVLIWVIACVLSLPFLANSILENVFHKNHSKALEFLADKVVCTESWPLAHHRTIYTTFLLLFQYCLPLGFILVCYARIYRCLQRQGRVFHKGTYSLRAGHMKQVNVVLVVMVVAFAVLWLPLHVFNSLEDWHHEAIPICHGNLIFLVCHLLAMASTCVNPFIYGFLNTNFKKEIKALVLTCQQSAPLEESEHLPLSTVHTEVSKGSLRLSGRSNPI

| pKi [1] | Ki [1] | pKi [2] | Ki [2] | pKi ([3]; hec-1b cell line) | Ki [3] | Intrinsic activity [4] | half-life at 100 µM [5] | K [6] | pEC50 [7] | EC50 [7] | Stability [8] | half-life at 100 µM [9] | pKi [3] | pKi ([2]; cho) | pEC50 ([7]; hek293t) | Structure (SMILES) |
| --- | --- | --- | --- | --- | --- | --- | --- | --- | --- | --- | --- | --- | --- | --- | --- | --- |
| 6.04 | 891 nM | < 5.52 | > 3160 nM | < 6.00 | > 1000 nM |  |  |  |  |  |  |  |  |  |  | CC(=O)N[C@@H](CCCNC(=N)N)C(=O)NC[C@H]1[C@@H](C(=O)N[C@@H](CCCNC(=N)N)C(=O)NC[C@H]2[C@@H](C(=O)N[C@@H](CCCNC(=N)N)C(=O)N[C@@H](Cc3ccc(O)cc3)C(N)=O)C[C@@H]2c2ccccc2)C[C@@H]1c1ccccc1 (Ac-R[X2]R[X2]RY-NH2) |
|  |  |  |  |  |  | 54% |  |  |  |  |  |  |  |  |  | CC(C)C[C@H](NC(=O)[C@@H](N)CCCNC(=N)N)C(=O)N[C@@H](CCCNC(=N)N)C(=O)N[C@@H](Cc1ccc(O)cc1)C(N)=O |
|  |  | < 5.30 | > 5010 nM |  | > 5010 nM | 0.58 | 1.4 h | 0.5 h⁻¹ | 6.96 |  |  | 2 h | < 5.30 |  |  | CC(=O)N[C@@H](CCCNC(=N)N)C(=O)N[C@@H](Cc1ccc(O)cc1)C(=O)N[C@@H](CCCNC(=N)N)C(=O)N[C@@H](CC(C)C)C(=O)N[C@@H](CCCNC(=N)N)C(=O)N[C@@H](Cc1ccc(O)cc1)C(N)=O |

Further lines, the compound ahead of its results:

| Structure (SMILES) | pKi [1] | Ki [1] | pKi [2] | Ki [2] | pKi ([3]; hec-1b cell line) | Ki [3] | Intrinsic activity [4] | half-life at 100 µM [5] | K [6] | pEC50 [7] | EC50 [7] | Stability [8] | half-life at 100 µM [9] | pKi [3] | pKi ([2]; cho) | pEC50 ([7]; hek293t) |
| --- | --- | --- | --- | --- | --- | --- | --- | --- | --- | --- | --- | --- | --- | --- | --- | --- |
| CC(=O)N[C@@H](CCCNC(=N)N)C(=O)NC[C@@H]1[C@H](C(=O)N[C@@H](CCCNC(=N)N)C(=O)NC[C@@H]2[C@H](C(=O)N[C@@H](CCCNC(=N)N)C(=O)N[C@@H](Cc3ccc(O)cc3)C(N)=O)C[C@H]2c2ccccc2)C[C@H]1c1ccccc1 (Ac-R[X1]R[X1]RY-NH2) | 6.47 | 331 nM | < 5.52 | > 3160 nM | < 6.00 | > 1000 nM |  |  |  |  |  |  |  |  |  |  |
| CC(C)C[C@H](NC(=O)[C@@H]1CCCNC(=N)NC(=O)NCCCCNC(=O)CCC(=O)N[C@@H](CCCNC(=N)N)C(=O)N[C@@H](Cc2c[nH]c3ccccc23)C(=O)N1)C(=O)N[C@@H](CCCNC(=N)N)C(=O)N[C@@H](Cc1ccc(O)cc1)C(N)=O |  |  |  |  |  |  | 80% |  |  |  |  |  |  |  |  |  |
| CC(=O)N[C@@H](CCCNC(=N)N)C(=O)NC[C@H]1[C@@H](C(=O)N[C@@H](CCCNC(=N)N)C(=O)N[C@@H](CC(C)C)C(=O)N[C@@H](CCCNC(=N)N)C(=O)N[C@@H](Cc2ccc(O)cc2)C(N)=O)C[C@@H]1c1ccccc1 (Ac-R[X2]RLRY-NH2) | 7.92 |  | < 5.52 | > 3160 nM |  | > 3160 nM | 0.39 | 2.2 h | 0.31 h⁻¹ | 6.21 | 468 nM | Stable | 3.2 h | < 5.52 |  |  |
| CC(=O)N[C@@H](CCCNC(=N)N)C(=O)NC[C@@H]1[C@H](C(=O)N[C@@H](CCCNC(=N)N)C(=O)N[C@@H](CC(C)C)C(=O)N[C@@H](CCCNC(=N)N)C(=O)N[C@@H](Cc2ccc(O)cc2)C(N)=O)C[C@H]1c1ccccc1 (Ac-R[X1]RLRY-NH2) | 9.18 | 0.646 nM |  | > 1000 nM |  | > 3160 nM | 0.5 | 0.4 h | 1.83 h⁻¹ | 7.70 | 18.6 nM | Stable | 0.55 h | < 5.52 | < 6.00 |  |
| CC(C)C[C@H](NC(=O)[C@@H]1CCCNC(=N)NC(=O)NCCCCNC(=O)CCC(=O)N[C@@H](CCCNC(=N)N)C(=O)N[C@@H](Cc2ccc(O)cc2)C(=O)N1)C(=O)N[C@@H](CCCNC(=N)N)C(=O)N[C@@H](Cc1ccc(O)cc1)C(N)=O |  |  |  |  |  |  | 68% |  |  |  |  |  |  |  |  | 8.77 |
